These results are taken from patent publication US11208412B2 (DAEGU-GYEONGBUK MEDICAL INNOVATION FOUNDATION, priority 2017, dated 2021).

This experiment addresses T1, recombinant LRRK2 kinase (Homo sapiens, UniProt Q5S007).
T1 construct: purchased Signal Chem, Richmond, BC, Canada
Kind of experiment: LRRK2 kinase inhibition (Kinase-Glo luminescence). It is filed as biochemical. Conditions: IC50 grade; 25 μmol/L ATP, LRRKtide, 30° C. 2 hours; read-out: Enzyme activity LRRK2. As for the experimental part:
Upon completion of the reaction, an equal amount of Kinase-Glo (Promega, Madison, Wis.) solution was added thereto, followed by reaction for 40 minutes. A detection solution was added thereto, followed by further reaction at room temperature for 30 minutes. Then, IC50 of kinase was calculated by measuring the amount of luciferase using a microplate ELISA reader (Bio-Tek).
Background: Kinase-Glo reads ATP consumption through a luciferase reaction.

The structures appear in SMILES notation. Bounds are passed on as bounds.

T1 sequence (Q5S007 whole entry): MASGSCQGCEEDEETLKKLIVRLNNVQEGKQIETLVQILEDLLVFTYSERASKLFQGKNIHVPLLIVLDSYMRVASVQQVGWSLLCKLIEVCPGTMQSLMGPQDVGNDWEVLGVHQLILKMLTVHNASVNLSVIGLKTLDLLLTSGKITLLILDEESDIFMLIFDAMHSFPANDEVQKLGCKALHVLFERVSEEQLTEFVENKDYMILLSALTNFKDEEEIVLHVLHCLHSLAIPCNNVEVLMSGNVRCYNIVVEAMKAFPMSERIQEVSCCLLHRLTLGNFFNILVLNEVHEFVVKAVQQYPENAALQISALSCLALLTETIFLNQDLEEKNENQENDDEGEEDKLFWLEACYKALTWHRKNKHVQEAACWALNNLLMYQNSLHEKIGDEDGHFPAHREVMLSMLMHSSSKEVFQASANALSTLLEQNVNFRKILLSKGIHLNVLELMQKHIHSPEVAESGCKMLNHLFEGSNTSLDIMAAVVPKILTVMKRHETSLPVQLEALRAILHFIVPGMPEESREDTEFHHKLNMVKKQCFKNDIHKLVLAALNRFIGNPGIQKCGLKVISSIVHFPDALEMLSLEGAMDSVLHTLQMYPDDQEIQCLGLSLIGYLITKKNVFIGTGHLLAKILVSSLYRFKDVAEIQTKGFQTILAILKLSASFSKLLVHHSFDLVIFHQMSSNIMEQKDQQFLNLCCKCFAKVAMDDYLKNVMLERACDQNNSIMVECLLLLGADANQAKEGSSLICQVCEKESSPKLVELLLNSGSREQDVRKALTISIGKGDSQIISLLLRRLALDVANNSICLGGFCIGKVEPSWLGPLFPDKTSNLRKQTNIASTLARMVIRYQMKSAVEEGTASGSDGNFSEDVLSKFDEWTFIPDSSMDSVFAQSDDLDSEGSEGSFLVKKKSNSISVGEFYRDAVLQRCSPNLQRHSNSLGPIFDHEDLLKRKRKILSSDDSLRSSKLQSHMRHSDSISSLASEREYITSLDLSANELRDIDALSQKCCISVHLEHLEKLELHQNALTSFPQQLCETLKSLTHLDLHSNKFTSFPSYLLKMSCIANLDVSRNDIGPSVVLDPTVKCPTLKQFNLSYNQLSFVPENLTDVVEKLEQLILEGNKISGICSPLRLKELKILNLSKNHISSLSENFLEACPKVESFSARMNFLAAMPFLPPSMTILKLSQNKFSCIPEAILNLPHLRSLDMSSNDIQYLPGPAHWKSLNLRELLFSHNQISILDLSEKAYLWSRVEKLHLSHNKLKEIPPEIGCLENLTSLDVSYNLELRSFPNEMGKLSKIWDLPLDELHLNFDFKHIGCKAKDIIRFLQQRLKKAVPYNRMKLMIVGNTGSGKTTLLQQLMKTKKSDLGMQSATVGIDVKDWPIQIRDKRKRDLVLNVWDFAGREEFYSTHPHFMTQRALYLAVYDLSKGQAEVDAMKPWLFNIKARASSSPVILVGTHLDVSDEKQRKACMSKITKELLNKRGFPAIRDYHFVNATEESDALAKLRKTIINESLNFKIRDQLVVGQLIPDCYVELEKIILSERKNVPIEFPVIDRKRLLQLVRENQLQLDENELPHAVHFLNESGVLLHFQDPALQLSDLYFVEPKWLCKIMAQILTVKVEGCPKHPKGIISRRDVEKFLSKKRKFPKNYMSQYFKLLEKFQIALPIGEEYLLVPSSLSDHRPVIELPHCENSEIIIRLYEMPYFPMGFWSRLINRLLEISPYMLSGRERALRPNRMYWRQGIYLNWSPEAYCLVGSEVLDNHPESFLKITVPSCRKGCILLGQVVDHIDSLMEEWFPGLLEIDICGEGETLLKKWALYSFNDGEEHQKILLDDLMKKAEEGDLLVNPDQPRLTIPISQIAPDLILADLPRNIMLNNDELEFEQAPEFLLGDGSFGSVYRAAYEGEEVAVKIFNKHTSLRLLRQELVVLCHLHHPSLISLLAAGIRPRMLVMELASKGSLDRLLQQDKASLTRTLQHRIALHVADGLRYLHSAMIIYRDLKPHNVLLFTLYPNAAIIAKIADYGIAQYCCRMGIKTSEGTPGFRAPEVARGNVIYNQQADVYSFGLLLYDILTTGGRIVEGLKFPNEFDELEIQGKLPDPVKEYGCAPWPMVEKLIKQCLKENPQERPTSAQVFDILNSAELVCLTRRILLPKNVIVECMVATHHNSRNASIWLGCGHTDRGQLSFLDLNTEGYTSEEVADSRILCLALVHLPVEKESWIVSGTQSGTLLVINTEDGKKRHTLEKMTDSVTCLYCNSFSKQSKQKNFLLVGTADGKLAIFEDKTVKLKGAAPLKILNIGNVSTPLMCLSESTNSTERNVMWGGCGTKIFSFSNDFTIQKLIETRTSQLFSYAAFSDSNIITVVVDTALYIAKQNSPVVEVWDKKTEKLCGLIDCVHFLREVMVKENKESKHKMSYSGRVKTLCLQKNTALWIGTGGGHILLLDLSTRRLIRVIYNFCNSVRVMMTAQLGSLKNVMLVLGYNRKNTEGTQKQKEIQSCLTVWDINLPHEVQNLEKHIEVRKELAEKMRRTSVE

Take `COc1cc(C(=O)N2CCC(N3CCOCC3)CC2)c(F)cc1Nc1nc(O[C@H]2CCOC2)c2c(C#N)c[nH]c2n1` [Example 93, (S)-2-((5-fluoro-2-methoxy-4-(4-morpholinopiperidine-1-carbonyl)phenyl)amino)-4-((tetrahydrofuran-3-yl)oxy)-7H-pyrrolo[2,3-d]pyrimidine-5-carbonitrile]: the IC50 was < 10 nM. With `Cc1nn(C(C)(C)C#N)cc1Nc1nc(OC2(C)CC2)c2c(C#N)c[nH]c2n1` [Example 94, 2-((1-(2-cyanopropane-2-yl)-3-methyl-1H-pyrazole-4-yl)amino)-4-(1-methylcyclopropoxy)-7H-pyrrolo[2,3-d]pyrimidine-5-carbonitrile] the figure was < 10 nM. The value for `COc1cc(C(=O)N2CCOCC2)ccc1Nc1nc(OC2(C)CC2)c2c(C#N)c[nH]c2n1` [Example 95, 2-((2-methoxy-4-(morpholine-4-carbonyl)phenyl)amino)-4-(1-methylcyclopropoxy)-7H-pyrrolo[2,3-d]pyrimidine-5-carbonitrile] was < 10 nM; that for `CC1(Oc2nc(Nc3cnn([C@H]4CCN(C5COC5)C[C@@H]4F)c3Cl)nc3[nH]cc(C#N)c23)CC1` [Example 96, 2-((5-chloro-1-((3S,4S)-3-fluoro-1-(oxetane-3-yl)piperidine-4-yl)-1H-pyrazole-4-yl)amino)(1-methylcyclopropoxy)-7H-pyrrolo[2,3-]pyrimidine-5-carbonitrile] was < 10 nM; that for `COc1cc(C(=O)N2CCOCC2)c(F)cc1Nc1nc(OC2(C)CC2)c2c(C#N)c[nH]c2n1` [Example 97, 2-((5-fluoro-2-methoxy-4-(morpholine-4-carbonyl)phenyl)amino)-4-(1-methylcyclopropoxy)-7H-pyrrolo[2,3-d]pyrimidine-5-carbonitrile] was < 10 nM. As for `COc1cc(C(=O)N2CCO[C@H](C)C2)ccc1Nc1nc(OC2(C)CC2)c2c(C#N)c[nH]c2n1` [Example 98, (R)-2-((2-methoxy-4-(2-methylmorpholine-4-carbonyl)phenyl)amino)-4-(1-methylcyclopropoxy)-7H-pyrrolo[2,3d]carbonitrile], the IC50 lay within 10 to 100 nM. For `COc1cc(C(=O)N2CCO[C@@H](C)C2)ccc1Nc1nc(OC2(C)CC2)c2c(C#N)c[nH]c2n1` [Example 99, (S)-2-((2-methoxy-4-(2-methylmorpholine-4-carbonyl)phenyl)amino)-4-(1-methylcyclopropoxy)-7H-pyrrolo[2,3-d]pyrimidine-5-carbonitrile], the IC50 was < 10 nM.

With `COc1cc(C(=O)N2C[C@@H](C)O[C@@H](C)C2)ccc1Nc1nc(OC2(C)CC2)c2c(C#N)c[nH]c2n1` [Example 100, 2-((4-((2R,6S)-2,6-dimethylmorpholine-4-carbonyl)-2-methoxyphenyl)amino)-4-(1-methylcyclopropoxy)-7H-pyrrolo[2,3-d]pyrimidine-5-carbonitrile], the IC50 fell in the range of 10 to 100 nM.

As for `CC1(Oc2nc(Nc3cnn([C@H]4CCN(C5COC5)C[C@@H]4F)c3)nc3[nH]cc(C#N)c23)CC1` [Example 101, 2-((1-((3S,4S)-3-fluoro-1-(oxetane-3-yl)piperidine-4-yl)-1H-pyrazole-4-yl)amino)-4-(1-methylcyclopropoxy)-7H-pyrrolo[2,3-d]pyrimidine-5-carbonitrile], the IC50 was < 10 nM. With `CCNc1nc(Nc2cnn([C@H]3CCN(C4COC4)C[C@@H]3F)c2Cl)nc2[nH]cc(C(F)(F)F)c12` [Example 102, N^2-(5-chloro-1-((3S,4S)-3-fluoro-1-(oxetane-3-yl)piperidine-4-yl)-1H-pyrazole-4-yl)-N^4-ethyl-5-(trifluoromethyl)-7H-pyrrolo[2,3-d]pyrimidine-2,4-diamine] the figure was 10 to 100 nM; with `CCNc1nc(Nc2cn(C(C)(C)C#N)nc2C)nc2[nH]cc(C(F)(F)F)c12` [Example 103, 2-(4-((4-(ethylamino)-5-(trifluoromethyl)-7H-pyrrolo[2,3-d]pyrimidine-2-yl)amino)-3-methyl-1H-pyrazole-1-yl)-2-methylpropanenitrile], < 10 nM; with `CCNc1nc(Nc2ccc(C(=O)N3CCOCC3)cc2OC)nc2[nH]cc(C(F)(F)F)c12` [Example 105, (4-((4-(ethylamino)-5-(trifluoromethyl)-7H-pyrrolo[2,3-d]pyrimidine-2-yl)amino)-3-methoxyphenyl)(morpholino)methanone], 10 to 100 nM. The value for `CCNc1nc(Nc2ccc(C(=O)N3CCC(N4CCN(C)CC4)CC3)cc2OC)nc2[nH]cc(C(F)(F)F)c12` [Example 106] was < 10 nM. The value for `CCNc1nc(Nc2ccc(C(=O)N3CCN(C)CC3)cc2OC)nc2[nH]cc(C(F)(F)F)c12` [Example 107, (4-((4-(ethylamino)-5-(trifluoromethyl)-7H-pyrrolo[2,3-d]pyrimidine-2-yl)amino)-3-methoxyphenyl)(4-methylpiperazine-1-yl)methanone] was < 10 nM; that for `CCNc1nc(Nc2ccc(C(=O)N3CCO[C@H](C)C3)cc2OC)nc2[nH]cc(C(F)(F)F)c12` [Example 108, (R)-(4-((4-(ethylamino)-5-(trifluoromethyl)-7H-pyrrolo[2,3-d]pyrimidine-2-yl)amino)-3-methoxyphenyl)(2-methylmorpholino)methanone] was 10 to 100 nM.

Regarding `CCNc1nc(Nc2ccc(C(=O)N3C[C@@H](C)O[C@@H](C)C3)cc2OC)nc2[nH]cc(C(F)(F)F)c12` [Example 109], the IC50 was > 100 nM.

For `CCNc1nc(Nc2ccc(C(=O)N3CCC(F)(F)CC3)cc2OC)nc2[nH]cc(C(F)(F)F)c12` [Example 110, (4,4-difluoropiperidine-1-yl)(4-((4-(ethylamino)-5-(trifluoromethyl)-7H-pyrrolo[2,3-d]pyrimidine-2-yl)amino)-3-methoxyphenyl)methanone], the IC50 is > 100 nM. Take `CNc1nc(Nc2ccc(C(=O)N3CCOCC3)cc2OC)nc2[nH]cc(C(F)(F)F)c12` [Example 112, (3-methoxy-4-((4-(methylamino)-5-(trifluoromethyl)-7H-pyrrolo[2,3-d]pyrimidine-2-yl)amino)phenyl)(morpholino)methanone]: the IC50 lay in the range of 10 to 100 nM. Regarding `F[C@H]1CN(C2COC2)CC[C@@H]1n1ncc(Nc2nc(NC3CC3)c3c(C(F)(F)F)c[nH]c3n2)c1Cl` [Example 117, N^2-(5-chloro-1-((3S,4S)-3-fluoro-1-(oxetane-3-yl)piperidine-4-yl)-1H-pyrazole-4-yl)-N^4-cyclopropyl-5-(trifluoromethyl)-7H-pyrrolo[2,3-d]pyrimidine-2,4-diamine], the IC50 was in the range of 10 to 100 nM. The value for `COc1cc(C(=O)N2CCOCC2)ccc1Nc1nc(NC2CC2)c2c(C(F)(F)F)c[nH]c2n1` [Example 118, (4-((4-(cyclopropylamino)-5-(trifluoromethyl)-7H-pyrrolo[2,3-d]pyrimidine-2-yl)amino)-3-methoxyphenyl)(morpholino)methanone] was < 10 nM. `COc1cc(C(=O)N2CCOCC2)ccc1Nc1nc(OC2CCOC2)c2c(C(F)(F)F)c[nH]c2n1` (stereo not drawn) [Example 124, (3-methoxy-4-((4-((tetrahydrofuran-3-yl)oxy)-5-(trifluoromethyl)-7H-pyrrolo[2,3-d]pyrimidine-2-yl)amino)phenyl)(morpholino)methanone]: the IC50 lay in the range of 10 to 100 nM. Consider `F[C@H]1CN(C2COC2)CC[C@@H]1n1ncc(Nc2nc(OC3CCOC3)c3c(C(F)(F)F)c[nH]c3n2)c1Cl` (stereo partly drawn) [Example 127], for which the IC50 is 10 to 100 nM. With `CCNc1nc(Nc2cc3c(cc2Cl)C(=O)N(C)C3)nc2[nH]cc(C#N)c12` [Example 128, 2-((6-chloro-2-methyl-1-oxoisoindol-5-yl)amino)-4-(ethylamino)-7H-pyrrolo[2,3-d]pyrimidine-5-carbonitrile], the IC50 is > 100 nM. With `CCNc1nc(Nc2cc3c(cc2OC)C(=O)N(C)C3)nc2[nH]cc(C#N)c12` [Example 130, 4-(ethylamino)-2-((6-methoxy-2-methyl-1-oxoisoindol-5-yl)amino)-7H-pyrrolo[2,3-d]pyrimidine-5-carbonitrile] the figure was < 10 nM; with `CCNc1nc(Nc2cc3c(cc2OC)N(C)C(=O)C(C)(C)O3)nc2[nH]cc(C#N)c12` [Example 131, 4-(ethylamino)-2-((6-methoxy-2,2,4-trimethyl-3-oxo-3,4-dihydro-2H-benzo[b][1,4]oxazine-7-yl)amino)-7H-pyrrolo[2,3-d]pyrimidine-5-carbonitrile], 10 to 100 nM.

For the molecule `CCNc1nc(Nc2sc(C(C)(C)C#N)nc2C)nc2[nH]cc(C#N)c12` [Example 132, 2-((2-(2-cyanopropane-2-yl)-4-methylthiazole-5-yl)amino)-4-(ethylamino)-7H-pyrrolo[2,3-d]pyrimidine-5-carbonitrile], the IC50 lay in the range of 10 to 100 nM. Turning to `CCNc1nc(Nc2cc3c(cc2OC)C(=O)N(C)C3)nc2[nH]cc(C(F)(F)F)c12` [Example 133, 5-((4-(ethylamino)-5-(trifluoromethyl)-7H-pyrrolo[2,3-d]pyrimidine-2-yl)amino)-6-methoxy-2-methylisoindolin-1-one], the IC50 is < 10 nM. The value for `CCNc1nc(Nc2cc3c(cc2OC)CN(C)C3=O)nc2[nH]cc(C(F)(F)F)c12` [Example 134, 6-((4-(ethylamino)-5-(trifluoromethyl)-7H-pyrrolo[2,3-d]pyrimidine-2-yl)amino)-5-methoxy-2-methylisoindolin-1-one] was > 100 nM. The value for `CCNc1nc(Nc2cc3c(cc2Cl)C(=O)N(C)C3)nc2[nH]cc(C(F)(F)F)c12` [Example 135, 6-chloro-5-((4-(ethylamino)-5-(trifluoromethyl)-7H-pyrrolo[2,3-d]pyrimidine-2-yl)amino)-2-methyl isoindolin-1-one] was > 100 nM. The value for `CCNc1nc(Nc2ccc3c(c2)CN(C)C3=O)nc2[nH]cc(C(F)(F)F)c12` [Example 136, 5-((4-(ethylamino)-5-(trifluoromethyl)-7H-pyrrolo[2,3-d]pyrimidine-2-yl)amino)-2-methylisoindolin-1-one] was 10 to 100 nM.
